Measurements published in article PMC4894940, “The function of the two-pore channel TPC1 depends on dimerization of its carboxy-terminal helix” (Cellular and Molecular Life Sciences: CMLS, 2016).
Residues, ends and D or L forms follow the SMILES beside them.

How the values were obtained:
[1] = target: wild type peptide labeled by tryptophane (Arabidopsis thaliana, UniProt Q94KI8); experiment: Label-free MicroScale Thermophoresis (MST), CTH wild type peptide; assay type: binding; settings: 750 nM tryptophane-containing target peptide, ligand 3 nM to 100 µM, PBS pH 7.5, 1 % DMSO, 0.1 % Pluronic, 25 °C, 80 % MST power, 100 % LED power, technical duplicates, read-out: dissociation constant (K D) of CTH homo-dimerization
Method: (§1) For MST experiments, peptides corresponding to the consensus helical sequence (RSQRVDTLLHHMLGDEL) and the 3LA mutant (RSQRVDTAAHHMAGDEL) were synthesized (Peptide Speciality Laboratories GmbH, Heidelberg, Germany). To allow for label-free MST binding experiments, additional wild type and mutant peptides were synthesized, which were C-terminally extended by addition of two tryptophanes and a short linker (AAWW).
(§2) Labelfree MicroScale Thermophoresis binding experiments were performed in cooperation with the 2bind GmbH (Regensburg, Germany), using 750 nM tryptophane containing target peptide in PBS pH 7.5, 1 % DMSO, 0.1 % Pluronic with varied concentrations of the ligand peptide at 80 % MST power, 100 % LED power in hydrophilic zero background capillaries on a Monolith NT.labelfree device at 25 °C (NanoTemper Technologies, Munich, Germany). Normalized fluorescence data sets (WT peptide and MT peptide) were analyzed in the thermophoresis and temperature jump. For determination of the binding affinity (K D) of the wild type peptide, the recorded fluorescence was normalized to the fraction bound (0 = unbound, 1 = bound), and fitted using the K D fit formula derived from the law of mass action. Technical duplicates were performed for each experimental setup.

[2] = test system: tryptophane-labeled 3LA mutant CTH peptide; experiment: Label-free MicroScale Thermophoresis (MST), 3LA mutant CTH peptide; assay type: binding, Arabidopsis thaliana; settings: 3 nM to 100 µM, 750 nM tryptophane-labeled peptide, PBS pH 7.5, 1 % DMSO, 0.1 % Pluronic, 25 °C, technical duplicates
Method: as §1, §2

[3] = test system: Myc-tagged C-terminus of TPC1; experiment: Co-immunoprecipitation of TPC1 C-termini in HEK293T cells; assay type: binding, Arabidopsis thaliana; settings: IP anti-Myc, WB anti-Myc / anti-Flag, 3 independent experiments
Description: For the Co-IP tests the C-terminally tagged GFP-fusions were used as templates to amplify the soluble C-terminus (amino acids 673–733) of TPC1 or TPC1-3LP fused to GFP with PCR. The constructs were subcloned into the pENTR-D-TOPO vector and afterwards brought into the expression vectors with EcoRI and XhoI (New England Biolabs), so that they were N-terminally tagged either with 6x Myc (pCS2+MT) or with the FLAG-tag (pCS2 + Flag).
HEK293T cells were propagated in DMEM GIBCO Glutamax (Life Technologies) supplemented with 10 % fetal calf serum. Cells were seeded in 6–well plates (20–30 % confluency) and transfected the next day using 10 µl Roti-Fect (Carl Roth) per 2 µg total DNA (1 µg DNA per plasmid). Two days after transfection cells were washed with 2 ml PBS buffer (Life Technologies) and harvested for immunoprecipitation in 150 µl cold lysis buffer (10 mM HEPES, 150 mM NaCl, 1 % Nonidet P40, 5 % glycerol, pH 7,4/KOH) supplemented with protease inhibitors and phosphatase inhibitors (Complete mini EDTA free and PhosStop, Roche). Cells were disrupted mechanically with a syringe (cannula diameter 0.55 mm). The lysate was cleared by centrifugation at 13.500 rpm and 4 °C for 10 min. Total protein concentrations were measured with a bicinchoninic acid protein assay (Applichem), typically the total protein amount was 500–600 µg. Loading controls of 50 µg of the lysate were taken accordingly and filled up to 20 µl with lysis buffer before adding 5 µl of 5x sample buffer (250 mM Tris, 5 % SDS, 25 % glycerol, 0.25 % bromophenol blue, 250 mM β–mercaptoethanol, pH 6.8/HCl) and boiling. For immunoprecipitation, 3 µg of mouse anti-c-Myc Epitope antibody 9E10 (sc-40, Santa Cruz) was used per sample. Samples were incubated with the antibody for 45 min at 4 °C with a rotator, then 10 µl of protein G Dynabeads (Life Technologies) equilibrated in the lysis buffer was added to each sample and incubation continued for another 45 min. Samples were washed three times with cold lysis buffer before eluting three times with 20 µl of 100 mM glycine (pH 2.5/HCl). […]

[4] = target: the molecule itself; experiment: MST; label-free MST; 750 nM tryptophane-containing target peptide in PBS pH 7.5, 1 % DMSO, 0.1 % Pluronic, unlabeled ligand peptide varied from 3 nM to 100 µM, 25 °C, Monolith NT.labelfree; monomer to dimer

CSCC[C@H](NC(=O)[C@H](Cc1c[nH]cn1)NC(=O)[C@H](Cc1c[nH]cn1)NC(=O)[C@H](CC(C)C)NC(=O)[C@H](CC(C)C)NC(=O)[C@@H](NC(=O)[C@H](CC(=O)O)NC(=O)[C@@H](NC(=O)[C@H](CCCNC(=N)N)NC(=O)[C@H](CCC(N)=O)NC(=O)[C@H](CO)NC(=O)[C@@H](N)CCCNC(=N)N)C(C)C)[C@@H](C)O)C(=O)N[C@@H](CC(C)C)C(=O)NCC(=O)N[C@@H](CC(=O)O)C(=O)N[C@@H](CCC(=O)O)C(=O)N[C@@H](CC(C)C)C(=O)O [CTH peptide] (H-RSQRVDTLLHHMLGDEL-OH)
Kd [1]: 3.85 ± 1.1 µM

RSQRVDTAAHHMAGDEL [3LA mutant, 3LA mutant CTH peptide …]
interaction in MST [2]: no interaction was measured
interaction in MST ([2]; listed as 3-LA peptide): no interactions
interaction in MST ([2]; listed as CTH-3LA): lack of dimer formation

B1: C-terminus of the TPC1-3LP-mutant: soluble C-terminus of TPC1-3LP, N-terminally 6xMyc- or FLAG-tagged, C-terminal GFP fusion (protein)
chain: EAFFTELDLEEEEKCQGQDSQEKRNRRRSAGSKSRSQRVDTPPHHMPGDELSKPECSTSDT-eGFP
modifications: not fully specified (N-terminus); also: N-terminally 6xMyc- or FLAG-tagged
notes: soluble C-terminus of TPC1-3LP, N-terminally 6xMyc- or FLAG-tagged, C-terminal GFP fusion
Co-IP of C-termini [3]: reduced ability to dimerize
Co-IP of C-termini ([3]; listed as 3LP-Flag-Ct): visibly weaker interaction of the two C-termini

B2: Synthetic wild type CTH peptide (consensus C-terminal helix of TPC1, residues 707-723) (peptide)
peptide: RSQRVDTLLHHMLGDEL
notes: The two copies are written as one molecule; also called WT peptide; wild type peptide; source: synthetic peptide (Peptide Speciality Laboratories GmbH); not shown: AAWW (short linker and two tryptophans; only on the target copy held at 750 nM), C-terminal, kept
Kd [4]: 3.85 ± 1.1 µM

B3: TPC1 C-terminus: soluble C-terminus (residues 673–732) of wild type TPC1, N-terminally 6xMyc- or FLAG-tagged, C-terminal GFP fusion (protein)
chain: EAFFTELDLEEEEKCQGQDSQEKRNRRRSAGSKSRSQRVDTLLHHMLGDELSKPECSTSDT-eGFP
modifications: not fully specified (N-terminus); also: N-terminal 6xMyc or FLAG tag
notes: soluble C-terminus (residues 673–732) of wild type TPC1, N-terminally 6xMyc- or FLAG-tagged, C-terminal GFP fusion
Co-IP of C-termini [3]: bound to itself
